Laboratory results published in patent US7872026B2, “Ligand activators of the RAR receptors and pharmaceutical/cosmetic applications thereof” (Galderma Research & Development, priority 2003, dated 2011).

What was measured:
RAR gamma = molecular target: T1, RAR gamma (Homo sapiens, UniProt P13631); assay: Transactivation test (Kd apparent), RAR gamma; type: cell-based; settings: HeLa cells stably transfected with ERE-βGlob-Luc-SV-Neo reporter and RAR γ ER-DBD-puro; luciferase; Schild regression vs reference antagonist; read-out: RAR gamma Kd app
T1 sequence (P13631 185-454 limits assumed): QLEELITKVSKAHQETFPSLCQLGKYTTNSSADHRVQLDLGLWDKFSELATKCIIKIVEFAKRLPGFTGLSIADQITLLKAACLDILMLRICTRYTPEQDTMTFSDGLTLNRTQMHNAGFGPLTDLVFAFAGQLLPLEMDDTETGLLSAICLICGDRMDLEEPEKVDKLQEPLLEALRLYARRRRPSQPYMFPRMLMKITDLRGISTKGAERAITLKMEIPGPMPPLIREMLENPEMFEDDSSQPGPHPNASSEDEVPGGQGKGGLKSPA
Protocol: (§1) The compounds according to the invention have activating properties on RAR-type receptors. This RAR-receptor-activating activity is measured in a test of transactivation by means of the dissociation constant Kdapp (apparent).
(§2) The activation of receptors with an agonist (activator) in HeLa cells leads to the expression of a reporter gene, luciferase, which, in the presence of a substrate, generates light. The activation of the receptors may thus be measured by quantifying the luminescence produced after incubating the cells in the presence of a reference agonist. The activating products displace the agonist from its site, thus preventing activation of the receptor. The activity is measured by quantifying the decrease in light produced. This measurement makes it possible to determine the activating activity of the compounds according to the invention.
(§3) In this study, a constant is determined which represents the affinity of the molecule for the receptor. Since this value can fluctuate depending on the basal activity and the expression of the receptor, it is referred to as the Kd apparent (KdApp).
(§4) To determine this constant, the cells are brought into contact with a concentration of the test product and a concentration of the reference antagonist, 4-(5,5-dimethyl-8-p-tolyl-5,6-dihydro-2-naphthalen-2-ylethynyl)benzoic acid. Measurements are also taken for the total agonist (4-[2-(5,5,8,8-tetramethyl-5,6,7,8-tetrahydro-2-naphthyl)propenyl]benzoic acid) and inverse agonist, 4-{(E)-3-[4-(4-tert-butylphenyl)-5,5,8,8-tetramethyl-5,6,7,8-tetrahydro-2-naphthyl]-3-oxopropenyl}benzoic acid, controls.
(§5) These crossed curves make it possible to determine the AC50 values (concentration at which 50% activation is observed) for the reference ligand at various concentrations of test product. These AC50 values are used to calculate the Schild regression by plotting a straight line corresponding to the Schild equation (“Quantitation in Receptor Pharmacology” Terry P. Kenakin, Receptors and Channels, 2001, 7, 371-385).
(§6) In the case of an agonist, an AC50 value (concentration that gives 50% of the activity) is calculated by plotting the curve of the product at the concentration of the reference ligand that gives 80% activation.
(§7) The HeLa cell lines used are stable transfectants containing the plasmids ERE-βGlob-Luc-SV-Neo (reporter gene) and RAR (α, β, γ) ER-DBD-puro. These cells are inoculated into 96-well plates at a rate of 10,000 cells per well in 100 μl of DMEM medium without phenol red, and supplemented with 10% defatted calf serum. The plates are then incubated at 37° C. and 7% CO2 for 4 hours.
(§8) The various dilutions of the test products, of the reference ligand (4-(5,5-dimethyl-8-p-tolyl-5,6-dihydro-2-naphthalen-2-ylethynyl)benzoic acid), of the 100% control (100 nM 4-[2-(5,5,8,8-tetramethyl-5,6,7,8-tetrahydro-2-naphthyl)propenyl]benzoic acid) and of the 0% control (500 nM 4-{(E)-3-[4-(4-tert-butylphenyl)-5,5,8,8-tetramethyl-5,6,7,8-tetrahydro-2-naphthyl]-3-oxopropenyl}benzoic acid) are added at a rate of 5 μl per well. The plates are then incubated for 18 hours at 37° C. and 7% CO2.
(§9) The culture medium is removed by turning over and 100 μl of a 1:1 PBS/luciferin mixture is added to each well. After 5 minutes, the plates are read using the luminescence reader.

RAR alpha = molecular target: T2, RAR alpha (Homo sapiens, UniProt P10276); assay: Transactivation test (Kd apparent), RAR alpha; type: cell-based; settings: HeLa cells stably transfected with ERE-βGlob-Luc-SV-Neo reporter and RAR α ER-DBD-puro; luciferase; Schild regression vs reference antagonist; read-out: RAR alpha KD app
T2 sequence (P10276 183-417 limits assumed): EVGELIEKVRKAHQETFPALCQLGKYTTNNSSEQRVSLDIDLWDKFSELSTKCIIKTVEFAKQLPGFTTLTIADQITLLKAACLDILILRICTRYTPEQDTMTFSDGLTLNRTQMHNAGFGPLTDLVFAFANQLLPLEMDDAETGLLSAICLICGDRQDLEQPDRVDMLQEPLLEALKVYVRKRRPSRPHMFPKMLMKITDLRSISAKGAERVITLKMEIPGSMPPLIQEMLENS
Protocol: as §1, §2, §3, §4, §5, §6, §7, §8, §9

RAR beta = molecular target: T3, RAR beta (Homo sapiens, UniProt P10826); assay: Transactivation test (Kd apparent), RAR beta; type: cell-based; settings: HeLa cells stably transfected with ERE-βGlob-Luc-SV-Neo reporter and RAR β ER-DBD-puro; luciferase; Schild regression vs reference antagonist; read-out: RAR beta Kd app
T3 sequence (P10826 183-417 limits assumed): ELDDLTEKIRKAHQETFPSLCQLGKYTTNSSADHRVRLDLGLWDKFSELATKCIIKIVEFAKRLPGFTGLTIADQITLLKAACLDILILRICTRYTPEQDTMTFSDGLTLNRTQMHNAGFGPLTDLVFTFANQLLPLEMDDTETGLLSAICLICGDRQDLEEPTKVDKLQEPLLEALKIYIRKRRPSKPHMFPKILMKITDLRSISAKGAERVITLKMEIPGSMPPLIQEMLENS
Protocol: as §1, §2, §3, §4, §5, §6, §7, §8, §9

SMILES | Kd (RAR gamma) | melting point | Kd (RAR alpha) | Kd (RAR beta)
CNCCCOc1ccc(-c2ccc(C(=O)O)cc2)cc1-c1ccc2c(c1)C(C)(C)CCC2(C)C [Compound 61, 4′-(3-Methylaminopropoxy)-3′-(5,5,8,8-tetramethyl-5,6,7,8-tetrahydronaphth-2-yl)biphenyl-4-carboxylic acid] | 30 nM |  |  | 
CCCNCCCOc1ccc(-c2ccc(C(=O)OCC)cc2)cc1-c1ccc2c(c1)C(C)(C)CCC2(C)C [Compound 56, Ethyl 4′-(3-propylaminopropoxy)-3′-(5,5,8,8-tetramethyl-5,6,7,8-tetrahydronaphth-2-yl)biphenyl-4-carboxylate] |  | 120 °C |  | 
CC1(C)CCC(C)(C)c2cc(-c3cc(-c4ccc(C(=O)O)cc4)ccc3OCCCCCNC3CC3)ccc21 [Compound 69, 4′-(5-Cyclopropylaminopentyloxy)-3′-(5,5,8,8-tetramethyl-5,6,7,8-tetrahydronaphth-2-yl)biphenyl-4-carboxylic acid] | 250 nM |  | 2000 nM | 500 nM
CC1(C)CCC(C)(C)c2cc(-c3cc(-c4ccc(C(=O)O)cc4)ccc3OCCNC3CC3)ccc21 [Compound 67, 4′-(2-Cyclopropylaminoethoxy)-3′-(5,5,8,8-tetramethyl-5,6,7,8-tetrahydronaphth-2-yl)biphenyl-4-carboxylic acid] | 4 nM |  | 1000 nM | 60 nM
CCOC(=O)c1ccc(-c2ccc(OCCCNC)c(-c3ccc4c(c3)C(C)(C)CCC4(C)C)c2)cc1 [Compound 60, Ethyl 4′-(3-methylaminopropoxy)-3′-(5,5,8,8-tetramethyl-5,6,7,8-tetrahydronaphth-2-yl)biphenyl-4-carboxylate] |  | 141 °C |  | 
CCNCCCOc1ccc(-c2ccc(C(=O)OCC)cc2)cc1-c1ccc2c(c1)C(C)(C)CCC2(C)C [Compound 62, Ethyl 4′-(3-ethylaminopropoxy)-3′-(5,5,8,8-tetramethyl-5,6,7,8-tetrahydronaphth-2-yl)biphenyl-4-carboxylate] |  | 148 °C |  | 
CC(C)NCCCCOc1ccc(-c2ccc(C(=O)O)cc2)cc1-c1ccc2c(c1)C(C)(C)CCC2(C)C [Compound 1, 4′-(4-Isopropylaminobutoxy)-3′-(5,5,8,8-tetramethyl-5,6,7,8-tetrahydronaphth-2-yl)biphenyl-4-carboxylic acid] | 15 nM |  | 1000 nM | 500 nM
CCNCCCOc1ccc(-c2ccc(C(=O)O)cc2)cc1-c1ccc2c(c1)C(C)(C)CCC2(C)C [Compound 63, 4′-(3-Ethylaminopropoxy)-3′-(5,5,8,8-tetramethyl-5,6,7,8-tetrahydronaphth-2-yl)biphenyl-4-carboxylic acid] | 250 nM |  |  | 
CCCCNCCCOc1ccc(-c2ccc(C(=O)OCC)cc2)cc1-c1ccc2c(c1)C(C)(C)CCC2(C)C [Compound 52, Ethyl 4′-(3-butylaminopropoxy)-3′-(5,5,8,8-tetramethyl-5,6,7,8-tetrahydronaphth-2-yl)biphenyl-4-carboxylate] |  | 175 °C |  | 
CC1(C)CCC(C)(C)c2cc(-c3cc(-c4ccc(C(=O)O)cc4)ccc3OCCCCN)ccc21 [Compound 75, 4′-(4-Aminobutoxy)-3′-(5,5,8,8-tetramethyl-5,6,7,8-tetrahydronaphth-2-yl)biphenyl-4-carboxylic acid] | 60 nM |  | 8000 nM | 2000 nM
CCOC(=O)c1ccc(-c2ccc(OCCCNC3CC3)c(-c3ccc4c(c3)C(C)(C)CCC4(C)C)c2)cc1 [Compound 50, Ethyl 4′-(3-cyclopropylaminopropoxy)-3′-(5,5,8,8-tetramethyl-5,6,7,8-tetrahydronaphth-2-yl)biphenyl-4-carboxylate] |  | 141 °C |  | 
CC1(C)CCC(C)(C)c2cc(-c3cc(-c4ccc(C(=O)O)cc4)ccc3OCCCCNC3CC3)ccc21 [Compound 59, 4′-(4-Cyclopropylaminobutoxy)-3′-(5,5,8,8-tetramethyl-5,6,7,8-tetrahydronaphth-2-yl)biphenyl-4-carboxylic acid] | 1000 nM |  | 8000 nM | 4000 nM
CC(C)NCCOc1ccc(-c2ccc(C(=O)O)cc2)cc1-c1ccc2c(c1)C(C)(C)CCC2(C)C [Compound 12, 4′-(2-Isopropylaminoethoxy)-3′-(5,5,8,8-tetramethyl-5,6,7,8-tetrahydronaphth-2-yl)biphenyl-4-carboxylic acid] | 120 nM |  |  | 4000 nM
CC1(C)CCC(C)(C)c2cc(-c3cc(-c4ccc(C(=O)O)cc4)ccc3OCCCN)ccc21 [Compound 65, 4′-(3-Aminopropoxy)-3′-(5,5,8,8-tetramethyl-5,6,7,8-tetrahydronaphth-2-yl)biphenyl-4-carboxylic acid] | 8 nM |  |  | 
CC1(C)CCC(C)(C)c2cc(-c3cc(-c4ccc(C(=O)O)cc4)ccc3OCCCCCN)ccc21 [Compound 73, 4′-(5-Aminopentyloxy)-3′-(5,5,8,8-tetramethyl-5,6,7,8-tetrahydronaphth-2-yl)biphenyl-4-carboxylic acid] | 120 nM |  | 2000 nM | 2000 nM
